These results are taken from US20180273528A1 (LES LABORATOIRES SERVIER, priority 2015, published 2018).

The target in assay [1] is T1, DYRK1A (Homo sapiens, UniProt Q13627). In words: Cellular DYRK1 autophosphorylation assay in U2-OS cells. The assay is classed as cell-based. Further details: full-length, wild-type human DYRK1A (NM_001396) with an HA tag; expressed in transfected cells; host or cells: human U2-OS osteosarcoma cells, transient transfection of a pcDNA3.1 plasmid. The note with it: U2-OS cells transfected with HA-tagged human DYRK1A, 5 hours exposure; read-out: IC50 (μM) P-Ser520-Dyrk1A -Cell assay. The method in brief: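 U2-OS cells treated with a compound concentration range for 5 h. Phospho-Ser520-DYRK1A measured by western blot densitometry or Mesoscale ELISA. IC50 from dose-response curves; for blots, ratio of phospho-Ser520 to total DYRK1A signal.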

The target of assay [2] is T1, DYRK1A. Description: Kinase TR-FRET assay, DYRK1A. Further details: full-length, wild-type human DYRK1A (NM_001396) with an HA tag; expressed in transfected cells; host or cells: human U2-OS osteosarcoma cells, transient transfection of a pcDNA3.1 plasmid. Type of assay: biochemical. The conditions noted are these: full-length human kinase, 10 μM ATP. The method, then:
(§1) Inhibition of the enzymatic activity of human kinases was evaluated in a Time-Resolved Fluorescence Resonance Energy Transfer (TR-FRET) assay in 384-well reaction plates. […] Test compounds of the invention were added in reaction buffer at a range of concentrations from 0.1 nM to 30 μM. Following addition of EDTA (Sigma E7889, 10 mM) to stop the reaction, Europium-labelled mouse monoclonal antibody recognizing phospho-Thr232 in MBP (Perkin Elmer TRF0201, 1 nM) was added.
In general terms: TR-FRET usually uses a lanthanide donor and a delayed reading to cut background.

The next assay has as its target T2, CDK9 (Homo sapiens, UniProt P50750).
T2 construct: full-length human kinases from Carna Biosciences; purchased Carna Biosciences 04-110
In words: Kinase TR-FRET assay, CDK9. The assay is classed as biochemical. The conditions noted are these: full-length human kinase, 10 μM ATP. The method, then:
Inhibition of the enzymatic activity of human kinases was evaluated in a Time-Resolved Fluorescence Resonance Energy Transfer (TR-FRET) assay in 384-well reaction plates. In this assay, full-length human kinases from Carna Biosciences—DYRK1A (NM_001396, ref. 04-130; 2.0 ng/μl), DYRK1B (NM_004714, ref. 04-131; 1.2 ng/p), CLK1 (NM_001162407, ref. 04-126; 0.7 ng/μl), CDK9 (NM_001261, ref. 04-110; 0.9 ng/μl), or GSK3β (NM_001146156, ref. 04-141; 2.0 ng/μl—were incubated for 40 minutes (DYRK1A and DYRK1B) or 100 minutes (CLK1, CDK9 and GSK3β) at room temperature with ATP (Sigma A2383, 10 μM) and a ULight™-labelled human Myelin Basic Protein (MBP) peptide substrate (Perkin Elmer TRF0109, 100 nM) in a reaction buffer composed of 50 mM HEPES pH7.4, 1 mM EGTA, 10 mM MgCl2, 2 mM DTT and 0.01% Tween20. Test compounds of the invention were added in reaction buffer at a range of concentrations from 0.1 nM to 30 μM. Following addition of EDTA (Sigma E7889, 10 mM) to stop the reaction, Europium-labelled mouse monoclonal antibody recognizing phospho-Thr232 in MBP (Perkin Elmer TRF0201, 1 nM) was added. After one hour, the reaction plates were read using a fluorescence reader (EnVision®, Perkin Elmer) at 620 nm and 665 nm (excitation at 340 nm); when the Europium donor fluorophore is excited by light at 340 nm, an energy transfer (620 nm) to the acceptor occurs, which will then emit light at 665 nm.

The target of assay [3] is T3, His-TEV-DYRK1A Kinase domain (aa127-485) (Homo sapiens, UniProt Q13627).
T3 construct: His-TEV-DYRK1A Kinase domain (aa127-485); His tag (N); TEV protease cleavage site (N)
In words: Kinase ADP assay (ADP Hunter), DYRK1A kinase domain. The assay is classed as biochemical. The conditions noted are these: 20 μM ATP. The method in brief: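 Compounds incubated 10 min at 30 °C with 20 nM enzyme, 40 μM peptide substrate and 20 μM ATP in pH 7.4 Hepes buffer with 10 mM MgCl2. ADP formed detected by ADP Hunter Plus reagents after 20 min at 30 °C, fluorescence read at 590 nm.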

The next assay has as its target T4, DYRK1B (Homo sapiens, UniProt Q9Y463).
T4 construct: full-length human kinases from Carna Biosciences; purchased Carna Biosciences 04-131
In words: Kinase TR-FRET assay, DYRK1B. The assay is classed as biochemical. The note with it: full-length human kinase, 10 μM ATP. The method, then:
as §1

T4 sequence (Q9Y463 whole entry): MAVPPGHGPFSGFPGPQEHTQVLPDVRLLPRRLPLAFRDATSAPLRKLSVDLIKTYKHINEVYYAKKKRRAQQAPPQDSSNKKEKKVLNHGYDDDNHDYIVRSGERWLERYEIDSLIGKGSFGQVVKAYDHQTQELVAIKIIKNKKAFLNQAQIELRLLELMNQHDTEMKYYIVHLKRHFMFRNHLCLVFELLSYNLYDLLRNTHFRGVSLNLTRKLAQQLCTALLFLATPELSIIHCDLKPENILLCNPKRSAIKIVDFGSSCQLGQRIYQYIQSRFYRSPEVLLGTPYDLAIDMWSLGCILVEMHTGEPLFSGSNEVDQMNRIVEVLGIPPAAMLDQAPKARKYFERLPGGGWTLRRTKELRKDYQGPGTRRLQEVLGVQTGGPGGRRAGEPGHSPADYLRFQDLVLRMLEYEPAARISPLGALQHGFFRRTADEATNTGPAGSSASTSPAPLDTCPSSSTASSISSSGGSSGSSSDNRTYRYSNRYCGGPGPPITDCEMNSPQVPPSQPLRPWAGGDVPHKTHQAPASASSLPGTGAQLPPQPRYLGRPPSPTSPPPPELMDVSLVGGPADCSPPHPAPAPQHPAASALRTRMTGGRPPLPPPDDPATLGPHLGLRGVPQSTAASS
T2 sequence (P50750 whole entry): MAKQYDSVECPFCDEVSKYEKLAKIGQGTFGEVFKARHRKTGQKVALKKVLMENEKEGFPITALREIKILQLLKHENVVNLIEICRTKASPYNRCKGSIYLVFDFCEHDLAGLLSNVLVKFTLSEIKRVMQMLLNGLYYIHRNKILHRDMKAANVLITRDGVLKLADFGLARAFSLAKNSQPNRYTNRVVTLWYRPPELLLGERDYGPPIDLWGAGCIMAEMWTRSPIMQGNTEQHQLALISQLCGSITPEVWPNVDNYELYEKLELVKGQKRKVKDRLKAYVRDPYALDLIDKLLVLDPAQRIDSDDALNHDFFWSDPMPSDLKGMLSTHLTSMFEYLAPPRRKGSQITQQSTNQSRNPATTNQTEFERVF
T2 sequence (O60563 whole entry partner): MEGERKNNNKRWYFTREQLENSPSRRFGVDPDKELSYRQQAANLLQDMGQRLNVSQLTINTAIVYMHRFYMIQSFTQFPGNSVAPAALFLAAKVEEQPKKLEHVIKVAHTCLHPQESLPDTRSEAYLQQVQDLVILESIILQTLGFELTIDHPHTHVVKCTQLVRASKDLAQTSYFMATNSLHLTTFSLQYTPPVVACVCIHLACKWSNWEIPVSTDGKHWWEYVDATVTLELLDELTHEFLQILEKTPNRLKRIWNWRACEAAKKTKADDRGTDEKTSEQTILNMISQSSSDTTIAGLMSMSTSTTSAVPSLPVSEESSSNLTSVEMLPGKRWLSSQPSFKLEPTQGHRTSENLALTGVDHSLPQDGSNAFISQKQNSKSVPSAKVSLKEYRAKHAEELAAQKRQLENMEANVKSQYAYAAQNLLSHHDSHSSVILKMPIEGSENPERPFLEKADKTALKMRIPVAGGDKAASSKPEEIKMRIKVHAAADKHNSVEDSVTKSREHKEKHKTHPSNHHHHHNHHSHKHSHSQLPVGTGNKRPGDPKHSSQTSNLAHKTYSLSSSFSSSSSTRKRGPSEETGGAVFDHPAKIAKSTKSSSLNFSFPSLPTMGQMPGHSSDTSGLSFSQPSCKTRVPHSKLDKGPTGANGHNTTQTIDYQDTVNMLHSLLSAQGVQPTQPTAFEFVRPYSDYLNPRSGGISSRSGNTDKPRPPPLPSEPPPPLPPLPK

For orientation: IC50 means the point on the concentration scale where inhibition reaches its midpoint. `Cc1nc2ccc(-c3cc(N)nc(N)c3)nc2n1CCO` [Example 3, 2-[5-(2,6-diaminopyridin-4-yl)-2-methyl-3H-imidazo[4,5-b]pyridin-3-yl]ethanol]: the IC50 was found to be 0.23 µM on DYRK1A [1], 0.02 µM against DYRK1A [2], 2.57 µM at CDK9 and 0.02 µM in assay [3].

Turning to `Cc1nc2ccc(-c3cc(N)nc(N)c3)nc2n1C` [Example 4, 4-(2,3-dimethyl-3H-imidazo[4,5-b]pyridin-5-yl)pyridine-2,6-diamine], the IC50 on DYRK1A [1] worked out at 0.25 µM; at DYRK1A [2], 0.015 µM; on CDK9, 1.26 µM; in assay [3], 0.011 µM.

In the case of `Cc1nc2ccc(-c3cc(N)nc(N)c3)nc2n1Cc1ccncc1` [Example 5, 4-[2-methyl-3-(pyridin-4-ylmethyl)-3H-imidazo[4,5-b]pyridin-5-yl]pyridine-2,6-diamine], the IC50 is 1 µM at DYRK1A [1], 0.006 µM on DYRK1A [2], 6.56 µM at CDK9 and 0.02 µM in assay [3].

Consider `Cc1nc2ccc(-c3cc(N)nc(N)c3)nc2n1Cc1ccccn1` [Example 6, 4-[2-methyl-3-(pyridin-2-ylmethyl)-3H-imidazo[4,5-b]pyridin-5-yl]pyridine-2,6-diamine], for which the IC50 against DYRK1A [2] is 0.155 µM; against CDK9, 1.09 µM; in assay [3] it was 0.493 µM; against DYRK1B, 0.149 µM.

In the case of `Cc1nc2ccc(-c3cc(N)nc(N)c3)nc2n1Cc1ccc(F)cc1` [Example 10, 4-[3-(4-fluorobenzyl)-2-methyl-3H-imidazo[4,5-b]pyridin-5-yl]pyridine-2,6-diamine], the IC50 against DYRK1A [2] is 0.032 µM; at CDK9, 4.58 µM; in assay [3] it was 0.079 µM; at DYRK1B, 0.055 µM.

In the case of `Cc1nc2ccc(-c3cc(N)nc(N)c3)nc2n1CC1CC1` [Example 11, 4-[3-(cyclopropylmethyl)-2-methyl-3H-imidazo[4,5-b]pyridin-5-yl]pyridine-2,6-diamine], the concentration for half-maximal inhibition (IC50) at DYRK1A [1] was found to be 0.17 µM; against DYRK1A [2] it was 0.004 µM; against CDK9 it was 3.45 µM; in assay [3], 0.011 µM.

Take `Cc1nc2ccc(-c3cc(N)nc(N)c3)nc2n1CCCN1CCCC1=O` [Example 13, 1-{3-[5-(2,6-diaminopyridin-4-yl)-2-methyl-3H-imidazo[4,5-b]pyridin-3-yl]propyl}pyrrolidin-2-one]: the IC50 against DYRK1A [2] is 0.012 µM; at CDK9, more than 10 µM; in assay [3] it was 0.035 µM; against DYRK1B, 0.019 µM.

For `Cc1nc2ccc(-c3cc(N)nc(N)c3)nc2n1Cc1cccs1` [Example 20, 4-[2-methyl-3-(thiophen-2-ylmethyl)-3H-imidazo[4,5-b]pyridin-5-yl]pyridine-2,6-diamine], the IC50 against DYRK1A [2] stood at 0.016 µM; against CDK9 it was 2.92 µM; in assay [3], 0.032 µM; on DYRK1B it was 0.016 µM.

With `CC(=O)Nc1ccc(CCn2c(C)nc3ccc(-c4cc(N)nc(N)c4)nc32)cc1` [Example 24, N-(4-{2-[5-(2,6-diaminopyridin-4-yl)-2-methyl-3H-imidazo[4,5-b]pyridin-3-yl]ethyl}phenyl)acetamide], the IC50 against DYRK1A [2] turned out to be 0.005 µM; at CDK9, 3.53 µM; in assay [3], 0.008 µM; against DYRK1B it was 0.015 µM.

On to `Cc1nc2ccc(-c3cc(N)nc(N)c3)nc2n1CCc1cccs1` [Example 26, 4-{2-methyl-3-[2-(thiophen-2-yl)ethyl]-3H-imidazo[4,5-b]pyridin-5-yl}pyridine-2,6-diamine], for which the IC50 at DYRK1A [2] is 0.004 µM; on CDK9 it was 1.82 µM; in assay [3], 0.007 µM; on DYRK1B it was 0.006 µM.

Consider `Cc1nc2ccc(-c3cc(N)nc(N)c3)nc2n1C12CC3CC(CC(C3)C1)C2` [Example 56, 4-{2-methyl-3-tricyclo[3.3.1.1^3,7]dec-1-yl-3H-imidazo[4,5-b]pyridin-5-yl}pyridine-2,6-diamine], for which the IC50 on DYRK1A [2] was determined as 0.009 µM; at CDK9, 0.357 µM; in assay [3], 0.015 µM.
